Data taken from ChEMBL document CHEMBL4616634, “4β-Hydroxywithanolide E from Goldenberry (Whole Fruits of Physalis peruviana L.) as a Promising Agent against Chronic Obstructive Pulmonary Disease” (J Nat Prod, 2020).

Target: T1, Nuclear factor erythroid 2-related factor 2 (Mus musculus) (UniProt Q60795)
T1 sequence (whole entry): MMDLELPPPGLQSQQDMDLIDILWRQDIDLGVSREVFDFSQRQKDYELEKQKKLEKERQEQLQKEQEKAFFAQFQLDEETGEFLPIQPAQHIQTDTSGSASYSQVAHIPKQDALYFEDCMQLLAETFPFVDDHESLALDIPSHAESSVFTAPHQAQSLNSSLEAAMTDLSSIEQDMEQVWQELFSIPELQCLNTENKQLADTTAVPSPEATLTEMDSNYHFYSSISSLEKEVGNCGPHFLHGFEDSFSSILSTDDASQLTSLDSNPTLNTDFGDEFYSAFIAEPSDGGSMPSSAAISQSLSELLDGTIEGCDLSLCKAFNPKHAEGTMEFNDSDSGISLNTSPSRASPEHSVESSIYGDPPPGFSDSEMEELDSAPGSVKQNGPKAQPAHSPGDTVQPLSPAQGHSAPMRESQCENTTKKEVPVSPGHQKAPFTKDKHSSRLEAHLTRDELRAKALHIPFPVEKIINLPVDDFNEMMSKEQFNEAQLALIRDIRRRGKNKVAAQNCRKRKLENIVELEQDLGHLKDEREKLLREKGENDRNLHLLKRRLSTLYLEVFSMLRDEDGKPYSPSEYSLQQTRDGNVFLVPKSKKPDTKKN
Assay: Activation of Nrf2 in mouse Hepa1c1c7 cells assessed as increase in quinone reductase activity incubated for 24 hrs by MTT based assay
Assay type: cell-based

## CC1=C(C)C(=O)O[C@H]([C@](C)(O)[C@]2(O)CC[C@@]3(O)[C@@H]4C[C@H]5O[C@]56[C@@H](O)C=CC(=O)[C@]6(C)[C@H]4CC[C@]23C)C1
  Activity: Dose-dependent effect
